Reference: US20180072770A1, “Influenza Virus Binding Peptides” (priority 2014, published 2018)
No end group written: not given here.

Experiments:
[1] = system: A/Aichi/2/68 H3N2; assay: Viral fusion with human erythrocyte ghosts (R18 dequenching); format: cell-based, influenza A virus; details: concentration-dependent, maximum; pH 5; FIG. 7
[2] = system: A/Aichi/2/68 H3N2; format: cell-based, influenza A virus
[3] = system: A/NewYork/55/2004 H3N2; format: binding, influenza A virus
[4] = system: A/Aichi/2/68 H3N2; assay: Infectivity inhibition assay (MTS, MDCK II cells); format: cell-based, influenza A virus; details: MOI 0.05, 24 h, concentration dependent, maximum, FIG. 8
[5] = system: influenza A virus; format: cell-based
[6] = system: X31 virus (A/Aichi/2/68 H3N2); assay: Inhibition of influenza A virus binding to fetuin (SPR)
[7] = system: A/Mute swan/Germany/R901/06 K3141 H7N1
[8] = system: A/Aichi/2/68 H3N2 (X31); format: binding, influenza A virus
[9] = system: A/Mute swan/Germany/R901/06 H7N1
[10] = system: A/California/7/2009 H1N1; format: binding, influenza A virus
[11] = target: A/Panama/2007/1999 H3N2; format: cell-based, influenza A virus; details: read-out: Mean Ki(HAI)
[12] = system: A/Aichi/2/68 H3N2
[13] = system: influenza A virus strains H3N2 (X31), H7N1, H1N1, H5N1, H3N2 (Victoria), H3N2 (NY); format: binding

KKKKFYGYDVFF-NH2 [SEQ ID NO:28]
inhibition of fusion efficiency with erythrocyte ghosts [1]: up to 40% | inhibition of viral attachment to single red blood cells [2]: up to 50% | factor of enhanced binding capability in comparison to SEQ ID NO:1 [3]: 4 | protection from infection / reduction of infectivity [4]: up to 55% | fold lower Ki(HAI) than the conventional peptides (SEQ ID NO:100, 101, 102) [5]: up to 1,600 fold | IC50 ([6]; A/Aichi/2/68 H3N2 (X31), SPR, read-out: Inhibition of binding to fetuin (IC50, RB)): 20 µM | fold lower IC50,RB in comparison to reference peptide SEQ ID NO:1 ([6]; X31): about 4.5 fold | IC50 [7]: 23 µM | Ki ([7]; read-out: Mean Ki(HAI)): 36.5 µM | factor of increased binding signal in comparison to SEQ ID NO:1 [8]: 2 | IC50 [9]: 30 µM | binding preference among the three tested strains [10]: shifts the binding preference strongly to H1N1/2009 | factor of enhanced binding capability in comparison to SEQ ID NO:1 [10]: 24 | Ki [11]: 0.1 µM | IC50 ([12]; A/Aichi/2/68): 18 µM | Ki ([12]; read-out: Mean Ki(HAI)): 31.9 µM

SEQ ID NO:23 (FYYYDVFY; Synthetically produced peptide)
binding preference among the three tested strains [10]: shifts the binding preference strongly to H1N1/2009

SEQ ID NO:29 (FYYYDVFF; Synthetically produced peptide)
binding preference among the three tested strains [10]: shifts the binding preference strongly to H1N1/2009

SEQ ID NO:33 (FYGYDVAF; Synthetically produced peptide)
relative binding preference for virus strains, in descending order [13]: H7N1 over H3N2 (X31), H3N2 (NY) and H5N1

SEQ ID NO:34 (FLGYDVFF; Synthetically produced peptide)
relative binding preference for virus strains, in descending order [13]: H3N2 (NY) over H5N1, H3N2 (X31) and H7N1

SEQ ID NO:76 (FYDYDRFY; Synthetically produced peptide)
virus binding (SPR) [3]: specifically binds | virus binding (SPR) [8]: does not bind | virus binding (SPR) [10]: does not bind

SEQ ID NO:97 (FYGYDVKF; Synthetically produced peptide)
relative binding preference for virus strains, in descending order [13]: H5N1 over H7N1, H3N2 (X31) and H3N2 (NY)
